Publication PMC11263240 (Pharmaceutical Research, 2024)
Counter-ions that a name gives are not always drawn. Like-named read-outs stand apart in the source and are kept apart here.

Assays:
[1] = CNS disposition of ondansetron (brain, spinal cord, CSF) after IV co-administration with tariquidar; assay type: in vivo, rat; details: ondansetron 10 mg/kg + tariquidar 7.5 mg/kg IV
Procedure: (§1) Animals previously used in the plasma pharmacokinetics study were included following a two-week washout period; and additional animals were added to achieve n = 4–6 per time point. […] Groups of rats were sacrificed at 0.16, 0.25, 0.5, 1, 1.5, 2, and 2.5 h under isoflurane anesthesia, and terminal samples were collected including plasma, brain, spinal cord, and cerebrospinal fluid from cisterna magna (CSF) and stored at −20°C.
Agilent 1260 Infinity HPLC equipped with a photodiode array detector was used (Agilent, Santa Clara, CA, USA) in this work. […] Inter-day and intra-day accuracy and precision of the assay were within 15%.
(§2) A standard noncompartmental analysis was performed using average plasma concentration–time data (samples obtained from sequential and terminal experiments were combined) in Phoenix WinNonlin version 8.1 (Certara, Princeton, NJ). For plasma, the area under the plasma concentration–time curve from time zero to infinity (AUCplasma), systemic clearance (CL), volume of distribution at steady state (Vd,ss), half-life (t1/2,plasma), and mean residence time (MRT) were calculated. For brain, spinal cord, and CSF the area under the tissue concentration–time curve (AUCtissue) and half-life in tissue (t1/2,tissue) were reported.
However, since the AUC values were based on terminal samples, no statistical comparison among the groups could be performed.

[2] = Semi-physiological pharmacokinetic model of ondansetron systemic and CNS disposition (estimated parameters); assay type: in vivo, rat; details: for k12 Distribution rate constant to peripheral distribution compartment / k13 Distribution rate constant to brain compartment / k14 Distribution rate constant to spinal cord compartment / k15 Distribution rate constant to CSF compartment / k21 Distribution rate constant from peripheral distribution compartment / k31 Distribution rate constant from brain compartment / k35=45 Rate constant for brain/spinal cord and CSF exchange / k41 Distribution rate constant from spinal cord compartment / k51 Distribution rate constant from CSF compartment / k53=54 Rate constant for brain/spinal cord and CSF exchange: model estimate shared across WT, KO, OT; for kPgp,TRQ Rate constant for Pgp-mediated efflux from the CNS for OT animals / kPgp Rate constant for Pgp-mediated efflux from the CNS: model estimate; for kPgp,TRQ Rate constant for Pgp-mediated efflux from the CNS for OT animals: OT group (with tariquidar); for kPgp Rate constant for Pgp-mediated efflux from the CNS: wild type animals, ondansetron alone; for Vd / k el: rat, plasma, brain, spinal cord, CSF, iv, 10 mg/kg
Procedure: Interconnectivity of CNS compartments followed animal physiology (A3 - brain, A4 – spinal cord, A5 - CSF), and previously published CNS model were consulted. The volume of the brain (Vbrain) was fixed to a previously determined value of 1.8 mL which was also in agreement with the brain weight reported before. The volume of the CSF compartment (VCSF) was fixed to 0.25 mL [25]. The volume of the spinal cord (Vspinal) was measured and reported in our previous study and was fixed to 0.6 mL. First order rate constant were used to describe a bidirectional passive permeability between the central disposition compartment (with the volume V1) and various CNS compartments (k13, k31, k14, k41, k15, k51) and distributional terms between CNS compartments (k35, k53, k45, k54). Pgp efflux at the BBB was described using a first-order term (kpgp) and was included for wild type animals only; the term was set to zero in KO rats. The following differential Eqs. (1–5) were used: 1 dA1/dt=k21·A2+k31·A3+k41·A4+k51·A5-kel+k12+k13+k14+k15·A1+kPgp·A3+kPgp·A4 2 dA2/dt=k12·A1-k21·A2 3 dA3/dt=k13·A1+k53·A5-k31+k35+kPgp·A3 4 dA4/dt=k14·A1+k54·A5-k41+k45+kPgp·A4 5 dA5/dt=k15·A1+k35·A3+k45·A4-k51+k53+k54·A5
(§3) The whole dataset included mean ondansetron profiles of OT-M and OT-F in plasma, brain, spinal cord, and CSF obtained in this study and previous data for male and female WT and KO animals. […] Several functions to describe tariquidar-induced Pgp inhibition were considered. […] The final model included a separate term for describing Pgp function in OT groups (kPgp,TRQ). Other parameters were shared across WT, KO, and OT models. All model parameters were estimated. A separate set of parameters was estimated for female cohorts (WT-F, KO-F, OT-F) using the same final model structure.
R (version 3.31) and Rstudio (version 1.2.5001, Boston, MA, USA) with Ubiquity package were used for model development as described before.

[3] = ondansetron alone 10 mg/kg IV, cited from earlier work
[4] = design: method as in PMID 15275776; details: cited from earlier work
[5] = Noncompartmental plasma pharmacokinetics of ondansetron after IV co-administration with tariquidar; assay type: in vivo, rat; details: ondansetron 10 mg/kg with tariquidar, wild type rats vs wild-type (and Pgp KO) rats
Procedure: The study was conducted under the protocol approved by the Institutional Animal Care and Use Committee at Rutgers University. Wild-type Sprague Dawley rats (males of 10–12 weeks, weighing 300–350 g and females of 12–14 weeks, weighing 250–280 g) were purchased from Horizon Discovery (previously Sage Labs Inc., Boyertown, PA). Animals were housed in a vivarium under controlled temperatures and 12/12 h dark/light cycle with free access to food and water. Right jugular vein was cannulated to allow for accurate intravenous dosing using polyethylene tubing (PE-50, Braintree Scientific, Braintree, MA). The surgery was performed under light isoflurane anesthesia, and after that animals were allowed to recover for 24 h. Intradermal bupivacaine and subcutaneous meloxicam were provided as analgesia. […]
as §2, with “For brain, spinal cord, and CSF the area under the tissue concentration–time curve (AUCtissue) and half-life in tissue (t1/2,tissue) were reported.” left out

[6] = tested on: Pgp; details: read-out: affinity to Pgp (KD); cited from earlier work
[7] = tested on: Pgp; details: 30 min after intravenous injection of tariquidar doses above 6 mg/kg; cited from earlier work
[8] = tested on: Pgp; experiment: Inhibition of Pgp efflux at the CNS by tariquidar in vivo; design: species or system rat; details: tariquidar 7.5 mg/kg IV, 30 min before ondansetron 10 mg/kg IV, wild type rats
Procedure: as §1, §3

[9] = tested on: Pgp; details: cited from earlier work
[10] = Tariquidar concentrations in plasma, brain, spinal cord and CSF after IV administration; assay type: in vivo, rat; details: 7.5 mg/kg IV; for half-life: Sprague Dawley, rat, plasma
Procedure: as §1
Agilent 1260 Infinity HPLC equipped with a photodiode array detector was used (Agilent, Santa Clara, CA, USA) in this work.
Data analysis was performed separately for male (OT-M) and female (OT-F) rat groups.

[11] = assay type: in vivo

Cc1nccn1CC1CCc2c(c3ccccc3n2C)C1=O (stereo not shown) [Ondansetron, Ondansetron hydrochloride]
AUCtissue,0-∞ ([1]; Brain, OT-F: female rats): 19.16 h⋅μg⋅mL^−1 | AUCtissue,0-∞ ([1]; Brain, OT-M: male rats): 22.0 h⋅μg⋅mL^−1 | AUCtissue,0-∞ ([1]; CSF, OT-F: female rats): 1.49 h⋅μg⋅mL^−1 | AUCtissue,0-∞ ([1]; CSF, OT-M: male rats): 1.37 h⋅μg⋅mL^−1 | AUCtissue,0-∞ ([1]; Spinal Cord, OT-F: female rats): 15.6 h⋅μg⋅mL^−1 | AUCtissue,0-∞ ([1]; Spinal Cord, OT-M: male rats): 15.0 h⋅μg⋅mL^−1 | k12 Distribution rate constant to peripheral distribution compartment ([2]; Female): 4.37 h⁻¹ | k13 Distribution rate constant to brain compartment ([2]; Female): 13.0 h⁻¹ | k14 Distribution rate constant to spinal cord compartment ([2]; Female): 3.60 h⁻¹ | k15 Distribution rate constant to CSF compartment ([2]; Female): 0.518 h⁻¹ | k21 Distribution rate constant from peripheral distribution compartment ([2]; Female): 2.32 h⁻¹ | k31 Distribution rate constant from brain compartment ([2]; Female): 25.2 h⁻¹ | k35=45 Rate constant for brain/spinal cord and CSF exchange ([2]; Female): 0.914 h⁻¹ | k41 Distribution rate constant from spinal cord compartment ([2]; Female): 31.5 h⁻¹ | k51 Distribution rate constant from CSF compartment ([2]; Female): 47.3 h⁻¹ | k53=54 Rate constant for brain/spinal cord and CSF exchange ([2]; Female): 79.9 h⁻¹ | kPgp,TRQ Rate constant for Pgp-mediated efflux from the CNS for OT animals ([2]; Female): 0.0001 h⁻¹ | kPgp Rate constant for Pgp-mediated efflux from the CNS ([2]; Female): 101 h⁻¹ | k12 Distribution rate constant to peripheral distribution compartment ([2]; Male): 2.14 h⁻¹ | k13 Distribution rate constant to brain compartment ([2]; Male): 17.6 h⁻¹ | k14 Distribution rate constant to spinal cord compartment ([2]; Male): 9.37 h⁻¹ | k15 Distribution rate constant to CSF compartment ([2]; Male): 0.081 h⁻¹ | k21 Distribution rate constant from peripheral distribution compartment ([2]; Male): 2.62 h⁻¹ | k31 Distribution rate constant from brain compartment ([2]; Male): 39.6 h⁻¹ | k35=45 Rate constant for brain/spinal cord and CSF exchange ([2]; Male): 0.928 h⁻¹ | k41 Distribution rate constant from spinal cord compartment ([2]; Male): 71.0 h⁻¹ | k51 Distribution rate constant from CSF compartment ([2]; Male): 6.84 h⁻¹ | k53=54 Rate constant for brain/spinal cord and CSF exchange ([2]; Male): 66.6 h⁻¹ | kPgp,TRQ Rate constant for Pgp-mediated efflux from the CNS for OT animals ([2]; Male): 0.002 h⁻¹ | kPgp Rate constant for Pgp-mediated efflux from the CNS ([2]; Male): 81.9 h⁻¹ | Vd ([2]; female, Sprague Dawley, with tariquidar (co-administered), read-out: V1,TRQ Central volume of distribution): 0.0113 L | k el ([2]; female, Sprague Dawley, with tariquidar (co-administered), read-out: kel,TRQ Systemic elimination rate constant for OT animals (converted)): 0.000839 s⁻¹ | Vd ([2]; female, read-out: V1 Central volume of distribution): 0.0133 L | k el ([2]; female, read-out: kel Systemic elimination rate constant (converted)): 0.00141 s⁻¹ | Vd ([2]; male, Sprague Dawley, with tariquidar (co-administered), read-out: V1,TRQ Central volume of distribution): 0.0127 L | k el ([2]; male, Sprague Dawley, with tariquidar (co-administered), read-out: kel,TRQ Systemic elimination rate constant for OT animals (converted)): 0.000939 s⁻¹ | Vd ([2]; male, read-out: V1 Central volume of distribution): 0.0175 L | k el ([2]; male, read-out: kel Systemic elimination rate constant (converted)): 0.001 s⁻¹ | KP_KO ([3]; Brain, female Pgp knockout rats): 3.04 | KP_WT ([3]; Brain, female wild type rats): 0.71 | KP_KO ([3]; Brain, male Pgp knockout rats): 2.52 | KP_WT ([3]; Brain, male wild type rats): 0.46 | KP_KO ([3]; CSF, female Pgp knockout rats): 0.22 | KP_WT ([3]; CSF, female wild type rats): 0.11 | KP_KO ([3]; CSF, male Pgp knockout rats): 0.19 | KP_WT ([3]; CSF, male wild type rats): 0.06 | KP_KO ([3]; Spinal Cord, female Pgp knockout rats): 1.34 | KP_WT ([3]; Spinal Cord, female wild type rats): 0.47 | KP_KO ([3]; Spinal Cord, male Pgp knockout rats): 1.78 | KP_WT ([3]; Spinal Cord, male wild type rats): 0.39 | effect of intrathecal administration in a neuropathic animal model [4]: dose-dependent antinociceptive effect | plasma ondansetron concentration in comparison to ondansetron administered alone [5]: almost doubled

COc1cc2c(cc1OC)CN(CCc1ccc(NC(=O)c3cc(OC)c(OC)cc3NC(=O)c3cnc4ccccc4c3)cc1)CC2 [Tariquidar]
Kd [6]: 5.1 nM | inhibition of Pgp [7]: complete inhibition | inhibition of Pgp efflux of ondansetron in the brain and spinal cord [8]: almost complete inhibition | inhibitory activity (IC50) [9]: nM-range | half-life ([10]; female rats): 2.2 h | half-life ([10]; male rats): 3.1 h | Tariquidar detection in CSF samples ([10]; rats, limit of detection 50 ng/mL for CSF): could not be detected | toxicity in rats immediately after ondansetron injection ([11]; tariquidar 15 mg/kg 30 min before ondansetron 10 mg/kg): toxicity | toxicity in rats after ondansetron injection ([11]; tariquidar dose decreased to 7.5 mg/kg, ondansetron 10 mg/kg): eliminating this toxicity
